Source: US12186318B2, “Pharmaceutical composition for preventing or treating cancer comprising KSP inhibitor and mitosis inhibitor” (KOREA INSTITUTE OF SCIENCE AND TECHNOLOGY, priority 2020, dated 2025)

Tests used:
Kif15 gene = test: Kif15 expression at the gene level (qRT-PCR) in HeyA8-MDR cells; assay type: cell-based; details: 50 nM siKSP and/or 2000 nM PTX, 48 hours
Method: Subsequently, total RNA was obtained respectively from the recovered cells using an RNeasy mini kit (Qiagen, US), cDNA was synthesized from the obtained total RNA using a TOPscript cDNA synthesis kit (Enzynomics, Korea), and PCR was performed using a StepOne qRT-PCR system (Thermo Fisher scientific) and primers specific to a Kif15 gene (SEQ ID NOS: 7 and 8) or primers specific to a β-actin gene (SEQ ID NOS: 5 and 6).
Thereafter, the levels of the amplified products obtained from the PCR were measured, and the measured levels were standardized with respect to an expression amount of β-actin, and then relative levels of Kif15 mRNA was calculated (FIG. 2C).

Kif15 protein = test: Kif15 expression at the protein level (western blot) in HeyA8-MDR cells; assay type: cell-based; details: 50 nM siKSP and/or 2000 nM PTX, 48 hours
Method: The cells recovered in Example 3-3 above were analyzed by western blotting using an anti-Kif15 antibody (FIG. 2D).

HeyA8-MDR cells = test: Anti-cancer activity, MTT cell viability and Bliss independence; assay type: cell-based; details: single agent, 0 to 200 nM liposome or 0 to 2000 nM paclitaxel, 48 hours
Method: The recovered cells were cultured in a fresh medium supplemented with a 10% MTT solution for 3 hours and formazan crystals generated by treatment with a Sorensen's glycine buffer and DMSO was dissolved therein. Thereafter, the absorbance thereof was measured at 570 nm and the cell viability was calculated using the same (FIG. 2G).
The cell viabilities of the cells were compared (FIG. 2H).
In addition, in order to quantitatively analyze a reduction level of the cell viability, the measured absorbance was applied to the following equation to calculate an expected inhibition level of cancer cells, and the obtained expected inhibition level was compared with an observed inhibition level of the cancer cells (FIGS. 2I to 2K). […] Expected inhibition level=FsiKSP-liposome+FPTX−(FsiKSP-liposome×FPTX)
Thereafter, cell viability inhibition levels and expected inhibition levels calculated therefrom were compared with each other (FIG. 2L). […] Expected Inhibition Level=Fa+Fb−(Fa×Fb)

HeyA8-MDR cancer cells [1] = test: Anti-cancer effect in tumor mouse model; assay type: in vivo, BALB/c nude mouse; details: 26 days after injection
Method: First, HeyA8-MDR cancer cells (1×10^8) were injected into the left thigh of a 5-week-old female BALB/c nude mouse, and then left until cancer tissue grew to a volume of about 50 mm3 to prepare 20 tumor mouse xenograft models.
Subsequently, at 26 days after injection of each of the samples, tumor tissue was excised from each tumor mouse model and weighed (FIG. 4B).
In addition, at 26 days after injection of each of the samples, tumor tissue was excised from each tumor mouse model, and tumor growth inhibition (TGI) rate was measured (FIG. 4C).

HeyA8-MDR cancer cells [2] = test: TUNEL assay on tumor tissue of tumor mouse model; assay type: in vivo, BALB/c nude mouse
Description: The tumor tissue of the respective groups excised in Example 4-2 above was subjected to a TUNEL assay to identify the level of apoptosis in the tumor tissue (FIG. 4I).

Kif15 mRNA = Kif15 mRNA level in drug-resistant PDX model; assay type: in vivo, mouse; details: relative to control
Method: The levels of Kif15 mRNA expressed in tumor tissue of the respective groups excised in Example 4-4-2 above were measured by qRT-PCR as an application method of that of Example 3-3 (FIG. 5E).

drug-resistant PDX model = test: TUNEL assay on tumor-implanted kidney tissue of drug-resistant PDX model; assay type: in vivo, mouse
Description: The tumor-implanted kidney tissue of the respective groups excised in Example 4-4-2 above was subjected to a TUNEL assay to identify the level of apoptosis in the tumor-implanted kidney tissue (FIG. 5H).

Q: Which results are given for `CC(=O)O[C@H]1C(=O)[C@@]2(C)[C@H]([C@H](OC(=O)c3ccccc3)[C@]3(O)C[C@H](OC(=O)[C@H](O)[C@@H](NC(=O)c4ccccc4)c4ccccc4)C(C)=C1C3(C)C)[C@]1(OC(C)=O)CO[C@@H]1C[C@@H]2O` [paclitaxel]?
A: expression level of the Kif15 gene (Kif15 gene): inhibited; level of the Kif15 protein (Kif15 protein): decreased; cell viability with increasing concentration (HeyA8-MDR cells): decreases; tumor growth inhibition (TGI) rate (HeyA8-MDR cancer cells [1]): about 13.1%; apoptosis in tumor tissue (TUNEL) (HeyA8-MDR cancer cells [2]): not induced or induced in a low level; Kif15 mRNA level in tumor-implanted kidney tissue (Kif15 mRNA): decreased; apoptosis in tumor-implanted kidney tissue (TUNEL) (drug-resistant PDX model): not induced or induced in a low level
